Assay results from ChEMBL document CHEMBL4507290 (2021).

Columns and labels:
[1] = tested on: Tyrosine-protein kinase ABL1 (Homo sapiens), P00519 [F317L]; conditions: Compound concentration 1000.0 nM
[2] = molecular target: BMP-2-inducible protein kinase (Homo sapiens) (UniProt Q9NSY1); conditions: Compound concentration 1000.0 nM
[3] = molecular target: Calcium/calmodulin-dependent protein kinase type 1D (Homo sapiens) (UniProt Q8IU85); conditions: Compound concentration 1000.0 nM
[4] = molecular target: Cyclin-dependent kinase 3 (Homo sapiens) (UniProt Q00526); conditions: Compound concentration 1000.0 nM
[5] = molecular target: Cyclin-dependent kinase 7 (Homo sapiens) (UniProt P50613); conditions: Compound concentration 1000.0 nM
[6] = molecular target: Dual specificity protein kinase CLK2 (Homo sapiens) (UniProt P49760); conditions: Compound concentration 1000.0 nM
[7] = molecular target: Myotonin-protein kinase (Homo sapiens) (UniProt Q09013); conditions: Compound concentration 1000.0 nM
[8] = tested on: Epidermal growth factor receptor (Homo sapiens), P00533 [T790M]; conditions: Compound concentration 1000.0 nM
[9] = molecular target: Tyrosine-protein kinase Fes/Fps (Homo sapiens) (UniProt P07332); conditions: Compound concentration 1000.0 nM
[10] = tested on: Receptor-type tyrosine-protein kinase FLT3 (Homo sapiens), P36888 [D835V]; conditions: Compound concentration 1000.0 nM
[11] = molecular target: G protein-coupled receptor kinase 3 (Homo sapiens) (UniProt P35626); conditions: Compound concentration 1000.0 nM
[12] = molecular target: Homeodomain-interacting protein kinase 1 (Homo sapiens) (UniProt Q86Z02); conditions: Compound concentration 1000.0 nM
[13] = molecular target: Mitogen-activated protein kinase 8 (Homo sapiens) (UniProt P45983); conditions: Compound concentration 1000.0 nM
[14] = molecular target: Mitogen-activated protein kinase 9 (Homo sapiens) (UniProt P45984); conditions: Compound concentration 1000.0 nM
[15] = molecular target: Serine/threonine-protein kinase LATS2 (Homo sapiens) (UniProt Q9NRM7); conditions: Compound concentration 1000.0 nM
[16] = molecular target: Mitogen-activated protein kinase kinase kinase kinase 3 (Homo sapiens) (UniProt Q8IVH8); conditions: Compound concentration 1000.0 nM
[17] = molecular target: Dual specificity mitogen-activated protein kinase kinase 7 (Homo sapiens) (UniProt O14733); conditions: Compound concentration 1000.0 nM
[18] = molecular target: Serine/threonine-protein kinase 3 (Homo sapiens) (UniProt Q13188); conditions: Compound concentration 1000.0 nM
[19] = molecular target: Cyclin-dependent kinase 18 (Homo sapiens) (UniProt Q07002); conditions: Compound concentration 1000.0 nM
[20] = molecular target: Platelet-derived growth factor receptor alpha (Homo sapiens) (UniProt P16234); conditions: Compound concentration 1000.0 nM
[21] = molecular target: Serine/threonine-protein kinase D3 (Homo sapiens) (UniProt O94806); conditions: Compound concentration 1000.0 nM
[22] = molecular target: Proto-oncogene tyrosine-protein kinase ROS (Homo sapiens) (UniProt P08922); conditions: Compound concentration 1000.0 nM
[23] = molecular target: Serine/threonine-protein kinase TBK1 (Homo sapiens) (UniProt Q9UHD2); conditions: Compound concentration 1000.0 nM
[24] = molecular target: TGF-beta receptor type-2 (Homo sapiens) (UniProt P37173); conditions: Compound concentration 1000.0 nM
[25] = molecular target: Angiopoietin-1 receptor (Homo sapiens) (UniProt Q02763); conditions: Compound concentration 1000.0 nM
[26] = molecular target: Serine/threonine-protein kinase 32B (Homo sapiens) (UniProt Q9NY57); conditions: Compound concentration 1000.0 nM
[27] = molecular target: Tyrosine-protein kinase ZAP-70 (Homo sapiens) (UniProt P43403); conditions: Compound concentration 1000.0 nM
[28] = molecular target: 5-hydroxytryptamine receptor 1D (Homo sapiens) (UniProt P28221); conditions: Compound concentration 10.0 uM
[29] = molecular target: 5-hydroxytryptamine receptor 6 (Homo sapiens) (UniProt P50406); conditions: Compound concentration 10.0 uM
[30] = molecular target: Histamine H1 receptor (Homo sapiens) (UniProt P35367); conditions: Compound concentration 10.0 uM
[31] = molecular target: Beta-3 adrenergic receptor (Homo sapiens) (UniProt P13945); conditions: Compound concentration 10.0 uM
[32] = molecular target: Alpha-1D adrenergic receptor (Homo sapiens, UniProt P25100); assay: GPCRScan assay: inhibition of Alpha1D; parameters: radioligand conc. used [nm] 0.3 – 1.0, parental cells stable
[33] = molecular target: Sodium-dependent dopamine transporter (Homo sapiens, UniProt Q01959); assay: Functional Assay: Platelet-rich plasma SLC6A3/cAMP; type: cell-free
[34] = molecular target: Inhibitor of nuclear factor kappa-B kinase subunit alpha (Homo sapiens) (UniProt O15111); conditions: Compound concentration 1000.0 nM
[35] = molecular target: Inhibitor of nuclear factor kappa-B kinase subunit beta (Homo sapiens) (UniProt O14920); conditions: Compound concentration 1000.0 nM
[36] = molecular target: MAP kinase-activated protein kinase 2 (Homo sapiens) (UniProt P49137); conditions: Compound concentration 1000.0 nM
[37] = tested on: Hepatocyte growth factor receptor (Homo sapiens), P08581 [M1250T]; conditions: Compound concentration 1000.0 nM
[38] = tested on: Hepatocyte growth factor receptor (Homo sapiens), P08581 [Y1235D]; conditions: Compound concentration 1000.0 nM
[39] = molecular target: cAMP-dependent protein kinase catalytic subunit beta (Homo sapiens) (UniProt P22694); conditions: Compound concentration 1000.0 nM
[40] = molecular target: 5-hydroxytryptamine receptor 1A (Homo sapiens) (UniProt P08908); conditions: Compound concentration 10.0 uM
[41] = molecular target: Histamine H2 receptor (Homo sapiens) (UniProt P25021); conditions: Compound concentration 10.0 uM
[42] = molecular target: Histamine H3 receptor (Homo sapiens) (UniProt Q9Y5N1); conditions: Compound concentration 10.0 uM
[43] = molecular target: Alpha-1B adrenergic receptor (Homo sapiens) (UniProt P35368); conditions: Compound concentration 10.0 uM
[44] = molecular target: Alpha-2A adrenergic receptor (Homo sapiens) (UniProt P08913); conditions: Compound concentration 10.0 uM
[45] = molecular target: Alpha-2C adrenergic receptor (Homo sapiens) (UniProt P18825); conditions: Compound concentration 10.0 uM
[46] = molecular target: Alpha-1D adrenergic receptor (Homo sapiens) (UniProt P25100); conditions: Compound concentration 10.0 uM

Sequence of Mitogen-activated protein kinase 8 (Homo sapiens) (P45983 whole entry): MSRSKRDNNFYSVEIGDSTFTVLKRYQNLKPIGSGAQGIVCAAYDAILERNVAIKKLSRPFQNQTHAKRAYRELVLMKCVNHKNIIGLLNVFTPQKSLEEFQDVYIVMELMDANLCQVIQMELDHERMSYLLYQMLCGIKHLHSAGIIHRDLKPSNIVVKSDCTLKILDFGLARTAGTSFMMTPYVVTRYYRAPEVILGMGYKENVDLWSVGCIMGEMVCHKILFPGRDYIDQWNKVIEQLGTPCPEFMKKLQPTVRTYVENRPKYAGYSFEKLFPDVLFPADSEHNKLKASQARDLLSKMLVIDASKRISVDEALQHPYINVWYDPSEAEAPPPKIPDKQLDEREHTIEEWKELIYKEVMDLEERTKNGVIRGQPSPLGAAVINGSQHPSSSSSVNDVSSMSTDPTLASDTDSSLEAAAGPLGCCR
Sequence of Mitogen-activated protein kinase 9 (Homo sapiens) (P45984 whole entry, looked up): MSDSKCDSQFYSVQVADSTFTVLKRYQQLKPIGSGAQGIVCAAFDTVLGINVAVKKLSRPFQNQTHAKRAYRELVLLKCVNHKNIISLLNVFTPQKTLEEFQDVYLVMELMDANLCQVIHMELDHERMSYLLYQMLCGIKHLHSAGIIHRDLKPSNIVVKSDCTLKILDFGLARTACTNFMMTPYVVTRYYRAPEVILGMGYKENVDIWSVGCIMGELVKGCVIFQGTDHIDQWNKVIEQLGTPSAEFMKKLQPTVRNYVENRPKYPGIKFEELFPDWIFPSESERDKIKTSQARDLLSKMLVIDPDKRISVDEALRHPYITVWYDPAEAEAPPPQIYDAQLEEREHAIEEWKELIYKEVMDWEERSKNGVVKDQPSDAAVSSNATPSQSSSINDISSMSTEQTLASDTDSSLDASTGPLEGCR
Sequence of Homeodomain-interacting protein kinase 1 (Homo sapiens) (Q86Z02 whole entry, looked up): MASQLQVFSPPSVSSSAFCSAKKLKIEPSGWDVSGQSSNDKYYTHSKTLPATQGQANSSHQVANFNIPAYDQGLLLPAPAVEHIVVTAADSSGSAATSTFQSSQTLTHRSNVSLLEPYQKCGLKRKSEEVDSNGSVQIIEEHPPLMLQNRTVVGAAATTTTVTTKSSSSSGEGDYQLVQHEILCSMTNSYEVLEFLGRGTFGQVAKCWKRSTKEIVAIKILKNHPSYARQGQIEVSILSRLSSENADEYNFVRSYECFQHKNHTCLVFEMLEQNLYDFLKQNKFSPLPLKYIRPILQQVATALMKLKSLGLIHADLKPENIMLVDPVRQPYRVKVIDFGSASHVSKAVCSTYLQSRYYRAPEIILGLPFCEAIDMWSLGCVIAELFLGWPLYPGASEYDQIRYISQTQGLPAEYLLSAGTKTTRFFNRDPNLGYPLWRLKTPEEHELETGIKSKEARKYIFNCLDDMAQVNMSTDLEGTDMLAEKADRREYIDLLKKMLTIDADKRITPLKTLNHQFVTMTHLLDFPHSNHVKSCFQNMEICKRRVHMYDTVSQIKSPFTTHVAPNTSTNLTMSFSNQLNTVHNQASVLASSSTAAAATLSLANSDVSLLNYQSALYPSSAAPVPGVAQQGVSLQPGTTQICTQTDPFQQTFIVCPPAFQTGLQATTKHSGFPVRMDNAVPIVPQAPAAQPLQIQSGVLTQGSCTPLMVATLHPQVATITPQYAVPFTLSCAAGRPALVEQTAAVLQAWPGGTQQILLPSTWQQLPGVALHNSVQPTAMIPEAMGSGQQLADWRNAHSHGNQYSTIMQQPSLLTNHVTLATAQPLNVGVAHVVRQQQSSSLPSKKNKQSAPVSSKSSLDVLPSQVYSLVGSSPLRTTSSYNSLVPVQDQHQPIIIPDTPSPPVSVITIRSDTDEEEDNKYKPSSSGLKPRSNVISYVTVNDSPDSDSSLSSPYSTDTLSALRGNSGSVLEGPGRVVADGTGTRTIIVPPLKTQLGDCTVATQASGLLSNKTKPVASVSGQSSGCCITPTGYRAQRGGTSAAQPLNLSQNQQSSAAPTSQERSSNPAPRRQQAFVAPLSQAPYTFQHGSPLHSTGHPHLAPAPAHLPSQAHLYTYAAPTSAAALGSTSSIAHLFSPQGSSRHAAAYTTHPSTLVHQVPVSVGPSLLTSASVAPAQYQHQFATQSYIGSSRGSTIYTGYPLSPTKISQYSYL
Sequence of Tyrosine-protein kinase ZAP-70 (Homo sapiens) (P43403 whole entry): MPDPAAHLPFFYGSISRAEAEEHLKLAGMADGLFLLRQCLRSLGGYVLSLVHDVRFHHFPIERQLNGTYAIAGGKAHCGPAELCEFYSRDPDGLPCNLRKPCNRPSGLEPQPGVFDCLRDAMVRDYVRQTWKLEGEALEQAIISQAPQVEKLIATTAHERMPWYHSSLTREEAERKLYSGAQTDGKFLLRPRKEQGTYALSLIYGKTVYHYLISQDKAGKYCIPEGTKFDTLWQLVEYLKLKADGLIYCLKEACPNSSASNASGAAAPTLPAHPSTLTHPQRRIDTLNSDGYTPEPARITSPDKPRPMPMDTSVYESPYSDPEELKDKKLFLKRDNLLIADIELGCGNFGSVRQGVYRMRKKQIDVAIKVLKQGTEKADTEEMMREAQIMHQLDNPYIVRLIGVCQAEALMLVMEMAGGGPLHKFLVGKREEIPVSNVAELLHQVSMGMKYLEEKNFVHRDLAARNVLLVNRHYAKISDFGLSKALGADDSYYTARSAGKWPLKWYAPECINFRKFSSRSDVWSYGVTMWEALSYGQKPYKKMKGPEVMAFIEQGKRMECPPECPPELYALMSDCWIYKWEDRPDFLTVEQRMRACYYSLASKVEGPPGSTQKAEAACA
Sequence of Cyclin-dependent kinase 3 (Homo sapiens) (Q00526 whole entry, looked up): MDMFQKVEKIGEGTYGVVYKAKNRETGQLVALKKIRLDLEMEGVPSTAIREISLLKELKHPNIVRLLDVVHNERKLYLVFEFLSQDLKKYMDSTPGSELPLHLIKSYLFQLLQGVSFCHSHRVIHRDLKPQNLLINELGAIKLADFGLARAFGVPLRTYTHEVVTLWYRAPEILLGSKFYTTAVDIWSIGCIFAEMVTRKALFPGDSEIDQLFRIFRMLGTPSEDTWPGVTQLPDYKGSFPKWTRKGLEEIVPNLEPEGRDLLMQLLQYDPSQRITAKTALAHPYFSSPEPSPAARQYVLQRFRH
Sequence of Mitogen-activated protein kinase kinase kinase kinase 3 (Homo sapiens) (Q8IVH8 whole entry): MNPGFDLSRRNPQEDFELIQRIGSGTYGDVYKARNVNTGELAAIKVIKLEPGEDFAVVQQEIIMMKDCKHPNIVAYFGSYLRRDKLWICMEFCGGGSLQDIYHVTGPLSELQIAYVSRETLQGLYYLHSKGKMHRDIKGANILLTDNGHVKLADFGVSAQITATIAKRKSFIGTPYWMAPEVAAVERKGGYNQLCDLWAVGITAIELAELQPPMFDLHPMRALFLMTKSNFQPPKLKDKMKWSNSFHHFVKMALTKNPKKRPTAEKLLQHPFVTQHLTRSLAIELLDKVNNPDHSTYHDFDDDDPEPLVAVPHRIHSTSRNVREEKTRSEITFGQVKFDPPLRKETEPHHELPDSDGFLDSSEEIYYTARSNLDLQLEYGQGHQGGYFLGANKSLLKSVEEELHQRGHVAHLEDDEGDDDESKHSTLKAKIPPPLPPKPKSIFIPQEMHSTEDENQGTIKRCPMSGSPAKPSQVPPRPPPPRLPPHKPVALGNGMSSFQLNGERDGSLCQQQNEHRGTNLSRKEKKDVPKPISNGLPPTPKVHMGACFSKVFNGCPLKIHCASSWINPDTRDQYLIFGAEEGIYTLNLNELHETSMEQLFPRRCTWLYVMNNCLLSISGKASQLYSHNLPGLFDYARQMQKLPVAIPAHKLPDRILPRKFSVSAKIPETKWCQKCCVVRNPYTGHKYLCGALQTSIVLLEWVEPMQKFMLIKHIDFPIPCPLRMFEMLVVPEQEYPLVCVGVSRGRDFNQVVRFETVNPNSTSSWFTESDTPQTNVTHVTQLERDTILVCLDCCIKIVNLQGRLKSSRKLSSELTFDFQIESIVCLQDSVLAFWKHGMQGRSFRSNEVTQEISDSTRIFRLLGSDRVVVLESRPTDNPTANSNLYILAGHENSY
Sequence of Serine/threonine-protein kinase 32B (Homo sapiens) (Q9NY57 whole entry): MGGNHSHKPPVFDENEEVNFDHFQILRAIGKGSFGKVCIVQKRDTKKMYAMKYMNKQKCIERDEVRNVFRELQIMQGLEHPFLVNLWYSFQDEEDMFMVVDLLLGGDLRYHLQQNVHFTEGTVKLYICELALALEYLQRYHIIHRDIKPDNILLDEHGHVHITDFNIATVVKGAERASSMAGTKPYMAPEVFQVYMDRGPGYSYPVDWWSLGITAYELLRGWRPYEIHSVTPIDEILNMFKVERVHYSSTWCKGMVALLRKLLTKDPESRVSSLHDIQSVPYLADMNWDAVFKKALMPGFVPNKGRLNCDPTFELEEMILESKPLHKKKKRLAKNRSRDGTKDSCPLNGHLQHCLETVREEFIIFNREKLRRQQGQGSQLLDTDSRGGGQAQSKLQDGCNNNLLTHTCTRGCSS
Sequence of G protein-coupled receptor kinase 3 (Homo sapiens) (P35626 whole entry): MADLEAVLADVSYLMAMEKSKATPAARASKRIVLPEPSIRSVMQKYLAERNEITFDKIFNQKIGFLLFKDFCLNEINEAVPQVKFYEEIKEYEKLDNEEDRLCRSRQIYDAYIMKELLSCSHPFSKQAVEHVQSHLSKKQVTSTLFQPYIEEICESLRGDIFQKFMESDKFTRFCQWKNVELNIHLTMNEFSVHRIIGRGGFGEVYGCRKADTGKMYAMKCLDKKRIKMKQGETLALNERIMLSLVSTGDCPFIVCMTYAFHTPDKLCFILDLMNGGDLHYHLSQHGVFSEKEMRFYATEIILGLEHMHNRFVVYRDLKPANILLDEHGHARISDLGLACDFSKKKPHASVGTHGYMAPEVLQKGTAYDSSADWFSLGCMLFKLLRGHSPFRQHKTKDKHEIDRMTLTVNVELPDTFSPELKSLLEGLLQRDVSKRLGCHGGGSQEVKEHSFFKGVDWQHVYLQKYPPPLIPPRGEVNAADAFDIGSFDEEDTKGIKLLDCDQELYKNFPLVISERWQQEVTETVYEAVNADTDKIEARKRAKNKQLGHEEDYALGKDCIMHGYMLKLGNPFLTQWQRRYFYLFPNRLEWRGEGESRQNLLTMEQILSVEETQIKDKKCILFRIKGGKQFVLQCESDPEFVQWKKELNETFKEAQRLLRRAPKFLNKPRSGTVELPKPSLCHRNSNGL

SMILES: CN([C@@H]1CCc2c(CC(=O)O)c3cc(S(C)(=O)=O)ccc3n2C1)S(=O)(=O)c1ccc(F)cc1
- residual activity [1]: 92%
- residual activity [2]: 98%
- residual activity [3]: 99%
- residual activity [4]: 100%
- residual activity [5]: 87%
- residual activity [6]: 100%
- residual activity [7]: 100%
- residual activity [8]: 100%
- residual activity [9]: 92%
- residual activity [10]: 99%
- residual activity [11]: 81%
- residual activity [12]: 77%
- residual activity [13]: 90%
- residual activity [14]: 100%
- residual activity [15]: 88%
- residual activity [16]: 100%
- residual activity [17]: 100%
- residual activity [18]: 98%
- residual activity [19]: 100%
- residual activity [20]: 100%
- residual activity [21]: 100%
- residual activity [22]: 87%
- residual activity [23]: 97%
- residual activity [24]: 67%
- residual activity [25]: 88%
- residual activity [26]: 100%
- residual activity [27]: 100%
- inhibition [28]: 0.539%
- inhibition [29]: -5.39%
- inhibition [30]: -9.04%
- inhibition [31]: 0.851%

SMILES: CN([C@@H]1CCc2c(CC(=O)O)c3ccccc3n2C1)S(=O)(=O)c1ccc(F)cc1 [MK-7246]
- Ki [32]: 10 µM
- IC50 [33]: 8.69 µM (not active)
- residual activity [2]: 100%
- residual activity [3]: 100%
- residual activity [4]: 100%
- residual activity [5]: 82%
- residual activity [6]: 94%
- residual activity [7]: 100%
- residual activity [8]: 100%
- residual activity [9]: 79%
- residual activity [10]: 94%
- residual activity [11]: 70%
- residual activity [12]: 100%
- residual activity [34]: 100%
- residual activity [35]: 98%
- residual activity [13]: 77%
- residual activity [14]: 98%
- residual activity [15]: 100%
- residual activity [16]: 100%
- residual activity [36]: 100%
- residual activity [37]: 100%
- residual activity [38]: 100%
- residual activity [18]: 100%
- residual activity [19]: 100%
- residual activity [20]: 100%
- residual activity [39]: 100%
- residual activity [21]: 94%
- residual activity [22]: 100%
- residual activity [23]: 100%
- residual activity [24]: 100%
- residual activity [25]: 92%
- residual activity [26]: 100%
- residual activity [27]: 100%
- inhibition [40]: 15.5%
- inhibition [28]: -6.38%
- inhibition [41]: -1.62%
- inhibition [42]: 4.03%
- inhibition [43]: -8.18%
- inhibition [44]: -3.89%
- inhibition [45]: -3.1%
- inhibition [31]: 26.9%
- inhibition [46]: 50%
